Data on 52 compounds can be found in PubChem BioAssay AID1996.

Converted amounts (≈) assume the structure as drawn.

For this data set the following is noted: buffer; pH 7.4; 200.0 µM.
`C/C(=N\OC(=O)c1ccc(C)cc1)c1c(C)nc2cc(C)ccn12`: the kinetic solubility stood at 6.6 µg/mL (≈ 20.5 µM).
`CCN(CC)c1ccc(CNCc2cccs2)cc1.Cl` had a kinetic solubility of 44.2 µg/mL.
The compound `Cn1nccc1C(=O)N1CCC(Cc2ccccc2)CC1` returned a solubility (kinetic) of over 42.5 µg/mL.
The compound `Cc1cc(N(C)C)nc(Nc2ccccc2)n1` showed a kinetic solubility of over 34.2 µg/mL.
In the case of `CC(C)C(OC(=O)/C=C/c1ccc2c(c1)OCO2)C(=O)NC(N)=O` (configuration not stated), the solubility (kinetic) stood at 6.6 µg/mL (≈ 19.7 µM).
For `O=C(NCC1CC1(Cl)Cl)Nc1ccc(Cl)c(Cl)c1` (configuration not stated), the kinetic solubility came to 9.1 µg/mL (≈ 27.7 µM).
For the compound `CC(=O)c1sc(NC(=O)COc2ccc(Cl)cc2Cl)nc1C`, the solubility (kinetic) is under 0.4 µg/mL.
`Cc1ccc2c(C)c(C(=O)NCCN3CCOC3=O)oc2c1C` had a solubility (kinetic) of over 47.5 µg/mL.
The value for `COc1ccc(NC(=O)c2cc(-c3ccco3)on2)c(OC)c1` was 0.8 µg/mL (≈ 2.55 µM); that for `Cc1ccc(OCc2cc(C(=O)NC3CCOC3)no2)cc1C` (configuration not stated) was 33.1 µg/mL (≈ 105 µM).
As to `NCCCNC(=O)c1ccc(/C=N/O)nc1`, the kinetic solubility is over 33.3 µg/mL.
The compound `COc1cc(NC(=O)CSc2nncn2C)cc(OC)c1OC` gave a kinetic solubility of over 50.8 µg/mL.
The result for `Cc1csc(SCC(=O)Nc2sccc2C(N)=O)n1` reads 43.8 µg/mL (≈ 140 µM).
The result for `CCN(CC(=O)NCCC1=CCCCC1)S(=O)(=O)c1ccccc1` reads over 52.6 µg/mL; that for `Cc1ccc(S(=O)(=O)/N=C(\N)c2ccc(F)cc2)cc1`, 38.1 µg/mL (≈ 130 µM); that for `Cc1ccc(NC(=O)CNC(=O)c2ccc3c(c2)OCO3)nc1`, 20.5 µg/mL (≈ 65.4 µM).
The value for `COc1cc(CCC(=O)OCC(=O)NCCc2ccc(S(N)(=O)=O)cc2)cc(OC)c1OC` was over 72.1 µg/mL.
Regarding `O=C(c1cccc(F)c1)N1CCCC(C(=O)N2CCCCC2)C1` (configuration not stated), the kinetic solubility was over 47.8 µg/mL.
As to `NC1=C(Br)C(=O)c2ccccc2C1=O`, the kinetic solubility was 37.3 µg/mL (≈ 148 µM).
Compound `COc1ccc(OCC(=O)Nc2nc3c(s2)CCCC3)cc1` returned a kinetic solubility of 14.3 µg/mL (≈ 44.9 µM).
Compound `CCN(CCO)c1nc(N2CCCCC2)c2cnn(C)c2n1` had a solubility (kinetic) of over 45.7 µg/mL.
`O=C(/C=C/c1cccs1)N1CCN(c2ccc(F)cc2)CC1` yielded a solubility (kinetic) of 3.1 µg/mL (≈ 9.8 µM).
The value for `CCN(c1ccccc1)S(=O)(=O)c1ccc(C(=O)Nc2ccccc2OC)cc1` was 3.7 µg/mL (≈ 9.01 µM); that for `Cc1nc2ccc(C(=O)Nc3ccc(N(C)C)cc3)cc2s1` was 4.1 µg/mL (≈ 13.2 µM); that for `C=CCN1C(=O)/C(=C/c2cc(C)n(-c3cccnc3)c2C)C(=O)NC1=S` was 12.9 µg/mL (≈ 35.2 µM).
In the case of `FC(F)(F)c1ccc(NCCc2ccccc2)nc1`, the solubility (kinetic) is 3.7 µg/mL (≈ 13.9 µM).
`Oc1ccc(/C=N/N2CCCCC2)c(O)c1O` returned a solubility (kinetic) of over 35.4 µg/mL.
Compound `Cc1ccc(OP(N)(=O)Oc2ccc(C)cc2)cc1` displayed a kinetic solubility of 29.6 µg/mL (≈ 107 µM).
The result for `CN(C)C(CNC(=O)c1cc(S(=O)(=O)N2CCOCC2)ccc1F)c1cccs1` (configuration not stated) reads over 66.2 µg/mL.
`CSc1ncc2c(=O)[nH]c(-c3ccccc3)nc2n1`: the kinetic solubility was over 40.5 µg/mL.
The result for `CC1=C(C(=O)OCC2CCCCC2)C(c2ccccc2F)NC(=O)N1` (configuration not stated) reads 0.6 µg/mL (≈ 1.73 µM); that for `CCCN1CNC(=S)N(c2ccc(C)cc2C)C1`, over 39.5 µg/mL; that for `COc1ccc(C2=NCCNC(C(F)(F)F)=C2)cc1`, over 40.5 µg/mL.
`O=C(COc1ccc2ccc(=O)oc2c1)NC1CCCC1` showed a solubility (kinetic) of over 43.1 µg/mL.
Take `COc1ccc(-c2c(C(=O)O)c(C(=O)O)c3n2CCC3)cc1`: the solubility (kinetic) was over 45.2 µg/mL.
Compound `CC(O)c1cccc(NC(=O)Cc2cccc3ccccc23)c1` (configuration not stated) showed a solubility (kinetic) of 44.7 µg/mL (≈ 146 µM).
`COCc1ccc(C(=O)Nc2ccc(C(=O)O)cc2)o1` had a solubility (kinetic) of over 41.3 µg/mL.
Regarding `Cc1ccsc1CN1CC(=O)N(c2c(C)cccc2C)C1=S`, the kinetic solubility is 12.2 µg/mL (≈ 36.9 µM).
As to `CC(=O)c1ccc(Sc2ccccc2N)c([N+](=O)[O-])c1`, the solubility (kinetic) worked out at 19.6 µg/mL (≈ 68 µM).
`Brc1ccccc1CN1CCC(Cc2ccccc2)CC1`: the solubility (kinetic) was found to be 2.6 µg/mL (≈ 7.55 µM).
`C=CC[n+]1ccc(/C=C2\C=Cc3cc(C)ccc3N2CC)c2ccccc21.[Br-]` yielded a kinetic solubility of over 53 µg/mL.
As to `CN(C(=S)NCCN1CCOCC1)C(c1ccccc1)c1ccccc1`, the kinetic solubility is 42.7 µg/mL (≈ 116 µM).
In turn, `N#Cc1c(-c2ccco2)ccn(Cc2ccc(F)cc2)c1=O` returned a solubility (kinetic) of 9 µg/mL (≈ 30.6 µM).
Take `COc1ccccc1NC(=S)NC(=O)Cc1ccccc1`: the kinetic solubility was determined as 0.5 µg/mL (≈ 1.66 µM).
In turn, `N#CC1=C(N)Oc2c(c(=O)sc3ccccc23)C1c1ccncc1` (configuration not stated) had a solubility (kinetic) of 3.6 µg/mL (≈ 10.8 µM).
As for `O=C(Nc1ccc(Br)cc1)c1ccc2ncsc2c1`, the kinetic solubility is 7.9 µg/mL (≈ 23.7 µM).
On to `CCCCNC(=S)Nc1ccc(SC(F)F)cc1`, for which the solubility (kinetic) was over 43.6 µg/mL.
The value for `COc1ccc(C(=O)Nc2ccc(C(=O)Nc3cccnc3)cc2)cc1` was 0.6 µg/mL (≈ 1.73 µM); that for `CC1(C)Cc2ccccc2C(C(=O)c2ccccc2)=N1` was 31 µg/mL (≈ 118 µM); that for `NS(=O)(=O)c1ccc(CNC(=O)c2cnccn2)cc1` was over 43.8 µg/mL.
`Cc1cc(=O)oc2cc(OCC(=O)N3CCOCC3)c(Cl)cc12` had a solubility (kinetic) of over 50.7 µg/mL.
For `COc1ccccc1Nc1ncnc2sccc12`, the solubility (kinetic) was determined as 30.1 µg/mL (≈ 117 µM).

For orientation: solubility (kinetic) means the concentration staying in solution when a stock, usually in DMSO, is diluted into the medium.
